Measurements: patent US20060211573A1, “7-(Akenylamino)triazolopyrimidines, method for the production thereof and use thereof in controlling harmful fungi and substances containing said triazolopyrimidines” (priority 2003, published 2006)

System: Alternaria solani
Experiment: Activity against early blight of tomato caused by Alternaria solani (protective spray on tomato leaves)
Assay type: in vivo
Settings: 250 ppm active compound, sprayed one day before infection, assessed after 5 days; untreated plants 100% infected
Experimental: The active compounds were prepared, separately or together, as a stock solution with 0.25% by weight of active compound in acetone or DMSO. 1% by weight of the emulsi-fier Uniperol® EL (wetting agent with an emulsifying and dispersing action based on ethoxylated alkylphenols) was added to this solution and appropriately diluted with water to the desired concentration. Leaves of pot plants of the variety “Grope Fleischtomate St. Pierre” were sprayed to runoff point with an aqueous suspension in the active compound concentration given below. On the following day, the leaves were infected with an aqueous suspension of spores of Alternaria solani in 2% Biomalz solution with a concentration of 0.17×10^6 spores/ml. The plants were subsequently placed in a chamber saturated with water vapor at temperatures between 20 and 22° C. After 5 days, leaf infection in the untreated but infected control plants had so extensively developed that the infection could be visually determined in %.

## C=CC(C)Nc1c(-c2c(F)cc(F)cc2F)c(Cl)nc2ncnn12 (stereo not shown) [I-1, 5-chloro-6-(2,4,6-trifluorophenyl)-7-(1-methyl-2-propen-1-yl)amino[1,2,4]triazolo[1,5-a]pyrimidine]
  leaf infection, visually determined in %: no infection
